From US8541400B2, “Compositions forming non-lamellar dispersions” (Camurus AB, priority 2004, dated 2013) come the findings set out here.

A short description of data set [1]: Active agent loading into non-lamellar particle dispersion. It counts as physicochemical. The settings on record: active agent relative to mass of total amphiphile, DGMO/GDO/Pluronic F127 54/36/10 dispersion; for % loading by equilibration: 37° C., three days; for % loading by heat treatment: autoclavation 125° C., 20 minutes. The protocol: A composition comprising DGMO (54% by weight), GDO (36% by weight) and Pluronic® F127 (10% by weight) was dispersed in 99 times its weight in water by the method of Example 2.1.
The dispersion was divided into samples and loaded with each of the active agents shown below by each of two techniques: • i) A saturated solution of active was equilibrated with the particles in dispersion at 37° C. for three days by gentle stirring on a rotating table. • ii) The samples were dispersed in a solution of excess active agent and heat treated by autoclavation at 125° C. for 20 minutes and were allowed to temperature equilibrate at 37° C. for at least one hour.
The following loadings were achieved, expressed as percentage active agent incorporated relative to the mass of total amphiphile.

A short description of data set [2]: Oral bioavailability of octreotide in rats (plasma OCT, competitive immunoassay). The settings on record: rat, 0.2 mg/kg, read-out: Absolute bioavailability (F). It counts as in vivo. The protocol:
On the first day of the experiment, the rats were prepared by inserting a silicon catheter (OD approx. 1 mm) in the jugular vein under isoflurane anaesthesia. The catheter was tunnelled under the skin and exteriorised between the scapulae. After surgery the rats were allowed 48 hours of recovery before dosing. The catheter was rinsed with 0.9% NaCl containing 1 mM EDTA, every morning during the recovery period.
In the morning, after approximately 16 hours of fasting (water was accessible), the animals were dosed and blood collected. The animals were allowed free access to water after dosing, but had no access to food. After the last sampling, all animals were sacrificed.
The rats were dosed intravenously through the venous catheter or by gavage by a plastic ball-tipped gavage tube. […]
The content of OCT in all plasma samples was measured by a competitive immunoassay. […] The fraction of antibody remaining in solution is removed, and the fraction bound to the immobilized peptide is quantified, the signal obtained being inversely proportional to the concentration of OCT in the sample. […]
Dose-corrected absolute bioavailability of OCT in the oral non-lamellar formulation was calculated as: Availability (F)=(AUCoral×DoseIV)/(AUCIV×Doseoral)×100 20.6—Results

With `C[C@]12CC[C@@H]3c4ccc(O)cc4C[C@@H](CCCCCCCCC[S+]([O-])CCCC(F)(F)C(F)(F)F)[C@H]3[C@@H]1CC[C@@H]2O` (stereo partly shown) [Fulvestrant], in data set [1], the “% loading by equilibration” value came out at 0.6% and the “% loading by heat treatment” value was 3.76%.

Regarding `CC(=O)N1CCN(c2ccc(OCC3COC(Cn4ccnc4)(c4ccc(Cl)cc4Cl)O3)cc2)CC1` (stereo not shown) [Ketoconazole], in data set [1], the “% loading by equilibration” value is reported as 3.49% and the “% loading by heat treatment” value stood at 19.25%.

In the case of `C[C@@H](O)[C@@H]1NC(=O)[C@H](CCCCN)NC(=O)[C@@H](Cc2c[nH]c3ccccc23)NC(=O)[C@H](Cc2ccccc2)NC(=O)[C@@H](NC(=O)[C@H](N)Cc2ccccc2)CSSC[C@@H](C(=O)N[C@H](CO)[C@@H](C)O)NC1=O` [OCT in a saline solution, Octreotide], in data set [2], the bioavailability is approximately 0.04%.

`CC(=O)[C@H]1CC[C@H]2[C@@H]3CCC4=CC(=O)CC[C@]4(C)[C@H]3CC[C@]12C` [Progesterone]: in data set [1], the “% loading by equilibration” value was 2.99% and the “% loading by heat treatment” value is given as 12.65%.
